Data as given in PMC7536148, “Interactions of zearalanone, α-zearalanol, β-zearalanol, zearalenone-14-sulfate, and zearalenone-14-glucoside with serum albumin” (Mycotoxin Research, 2020).
Where “and” joins values, the source holds several entries; their conditions need not be identical. Equal values may be shown once. Where a name gives a salt, the structure may show the parent alone. Read-outs that look alike come from different tables or passages of the source. Marks after values point to notes of the source that are not given here.

Columns and labels:
HSA = target: T1, HSA (Homo sapiens, UniProt P02768); assay: High-performance affinity chromatography on HSA-coated column; format: binding; settings: Chiralpak HSA column, isopropanol / 0.01 mol/L ammonium acetate pH 7.0 (15:85 v/v%), 0.5 mL/min, room temperature
T1 construct: purchased Daicel Chiralpak HSA, 50 × 3.0 mm, 5 μm
T1 sequence (P02768 25-609): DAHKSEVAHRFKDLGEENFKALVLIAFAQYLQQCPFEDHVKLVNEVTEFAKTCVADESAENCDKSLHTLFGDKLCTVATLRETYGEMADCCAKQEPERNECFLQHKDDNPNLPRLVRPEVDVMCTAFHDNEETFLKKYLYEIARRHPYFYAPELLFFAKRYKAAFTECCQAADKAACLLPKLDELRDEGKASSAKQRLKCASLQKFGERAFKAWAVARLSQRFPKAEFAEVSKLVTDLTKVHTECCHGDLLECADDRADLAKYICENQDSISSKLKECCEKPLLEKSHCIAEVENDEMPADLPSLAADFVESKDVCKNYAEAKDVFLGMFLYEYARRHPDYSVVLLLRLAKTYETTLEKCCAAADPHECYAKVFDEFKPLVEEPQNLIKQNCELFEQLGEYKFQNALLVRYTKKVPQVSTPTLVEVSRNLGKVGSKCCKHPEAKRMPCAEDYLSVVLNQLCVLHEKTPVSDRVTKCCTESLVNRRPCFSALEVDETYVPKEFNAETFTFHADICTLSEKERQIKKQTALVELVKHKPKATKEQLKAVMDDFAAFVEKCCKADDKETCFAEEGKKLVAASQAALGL
Description: HPAC was performed with a HSA-coated column (Faisal et al. [2018]). The HPLC system (Jasco, Tokyo, Japan) used for the analysis included an autosampler (AS-4050), a binary pump (PU-4180), and a diode-array detector (MD-4017). A 5-μL volume of samples (ZAN: 200 μmol/L; ZEN, α-ZAL, β-ZAL, and Z14S: 100 μmol/L; Z14G: 50 μmol/L) was driven through a pre-column filter (Waters, Milford, MA, USA) linked to an immobilized HSA-coated HPAC column (Chiralpak® HSA, 50 × 3.0 mm, 5 μm; Daicel, Tokyo, Japan). The isocratic elution was performed with 0.5-mL/min flow rate at room temperature. The mobile phase contained isopropanol (HPLC grade; VWR, Debrecen, Hungary) and 0.01 mol/L pH 7.0 ammonium acetate buffer (15:85 v/v%). Mycotoxins were detected at 235 nm, and chromatograms were evaluated with ChromNAV software.

warfarin-HSA complex [1] = target: T2, warfarin-HSA complex (Homo sapiens, UniProt P02768); assay: Effect of mycotoxins on warfarin-HSA interaction (warfarin fluorescence); format: binding; settings: warfarin 1 μmol/L, HSA 3.5 μmol/L, mycotoxin 0-15 μmol/L, PBS pH 7.4, λex = 317 nm
T2 construct: purchased Sigma-Aldrich
T2 sequence (P02768 25-609, one chain of several): as the sequence (P02768 25-609) above
Description: (§1) Fluorescence spectroscopic measurements were carried out employing a Hitachi F-4500 fluorescence spectrophotometer (Hitachi, Tokyo, Japan) to investigate the effect of increasing mycotoxin concentrations on the fluorescence signal of albumins as well as on the emission spectrum of warfarin-HSA complex. Our studies were executed in phosphate-buffered saline (PBS, pH 7.4; 8.00 g/L NaCl, 0.20 g/L KCl, 1.81 g/L Na2HPO4 × 2H2O, 0.24 g/L KH2PO4) at room temperature, in the presence of air.
(§2) For spectral correction of fluorescence emission intensities, absorption spectra of mycotoxins were also recorded applying a Jasco-V730 spectrophotometer (Jasco, Tokyo, Japan). The inner-filter effect of mycotoxins was corrected as described previously (Hu and Liu [2015]; Faisal et al. [2018]):1 Icor=Iobs×e^Aex+Aem/2 where Icor and Iobs indicate the corrected and observed fluorescence emission intensities, respectively. Aex and Aem denote the absorbance of mycotoxins at the excitation and emission wavelengths used, respectively.
To test the effects of ZEN metabolites on warfarin-HSA interaction, our previously reported method was applied (Faisal et al. [2018]; Fliszár-Nyúl et al. [2019]). In this experiment, the fluorescence emission signal of warfarin (1 μmol/L; λex = 317 nm, λem = 379 nm) was examined in the presence of HSA (3.5 μmol/L) without and with mycotoxins (0, 1, 2, 3, 4, 5, 6, 8, 10, and 15 μmol/L) in PBS (pH 7.4). Under these conditions, approximately 70% of warfarin is albumin-bound.

[2] = system: human, bovine, porcine, and rat serum albumins; assay: Fluorescence quenching, statements on all albumins tested together; format: binding; settings: albumins 2 μmol/L, mycotoxin 0-10 μmol/L, PBS, λex = 295 nm
Description: as §1, §2
To investigate the stability of mycotoxin-albumin complexes, mycotoxin-induced quenching effects on the intrinsic fluorescence of albumins were tested. The emission signal of albumins (2 μmol/L; λex = 295 nm; […]) were measured in the presence of increasing concentrations of mycotoxins (0.0, 1.0, 2.0, 3.0, 4.0, 5.0, 6.0, 7.0, 8.0, 9.0, and 10.0 μmol/L). […]

[3] = design: method as in Sun et al. 2019; settings: rats, ref Sun et al. 2019; cited from earlier work
CaCo-2 cells = system: CaCo-2 cells; design: method as in Cirlini et al. 2016; settings: ref Cirlini et al. 2016; cited from earlier work
[4] = pigs, cited from earlier work; for intestinal hydrolysis to ZEN after oral administration: ref Binder et al. 2017
[5] = target: T3, human serum albumin (HSA) (Homo sapiens, UniProt P02768); assay: Fluorescence quenching of human serum albumin by mycotoxins; format: binding; settings: for logKSV ± SEM (Stern-Volmer quenching constant): HSA 2 μmol/L, PBS pH 7.4, room temperature, λex = 295 nm, λem = 340 nm; for Kd: logK ± SEM (binding constant of mycotoxin-albumin complex), HSA, quenching data, Hyperquad2006 fitting, 1:1 stoichiometry, PBS pH 7.4
T3 construct: purchased Sigma-Aldrich
T3 sequence (P02768 25-609): as above
Description: as §1, §2
(§3) To investigate the stability of mycotoxin-albumin complexes, mycotoxin-induced quenching effects on the intrinsic fluorescence of albumins were tested. The emission signal of albumins (2 μmol/L; λex = 295 nm; […]) were measured in the presence of increasing concentrations of mycotoxins (0.0, 1.0, 2.0, 3.0, 4.0, 5.0, 6.0, 7.0, 8.0, 9.0, and 10.0 μmol/L). Stern-Volmer quenching constants (KSV; unit: L/mol) were determined employing the Stern-Volmer equation (Ma et al. [2018]; Faisal et al. [2018]):2 I0/I=1+KSV×Q where Q is the concentration of the mycotoxin (unit: mol/L). I0 and I are the fluorescence emission signal of albumin in the absence and presence of mycotoxins, respectively. Z14S and Z14G exert fluorescence; their excitation and emission spectra, under different environmental conditions, have been reported previously (Faisal et al. [2019], [2020]).
(§4) Binding constants (K; unit: L/mol) of mycotoxin-albumin complexes were determined by nonlinear fitting employing Hyperquad2006 software, as described in details in our previous studies (Sueck et al. [2018]; Faisal et al. [2018]).

[6] = target: T4, bovine serum albumin (BSA) (Bos taurus, UniProt P02769); assay: Fluorescence quenching of bovine serum albumin by mycotoxins; format: binding; settings: for logKSV ± SEM (Stern-Volmer quenching constant): BSA 2 μmol/L, PBS pH 7.4, room temperature, λex = 295 nm, λem = 340 nm
T4 construct: purchased Sigma-Aldrich
T4 sequence (P02769 25-607): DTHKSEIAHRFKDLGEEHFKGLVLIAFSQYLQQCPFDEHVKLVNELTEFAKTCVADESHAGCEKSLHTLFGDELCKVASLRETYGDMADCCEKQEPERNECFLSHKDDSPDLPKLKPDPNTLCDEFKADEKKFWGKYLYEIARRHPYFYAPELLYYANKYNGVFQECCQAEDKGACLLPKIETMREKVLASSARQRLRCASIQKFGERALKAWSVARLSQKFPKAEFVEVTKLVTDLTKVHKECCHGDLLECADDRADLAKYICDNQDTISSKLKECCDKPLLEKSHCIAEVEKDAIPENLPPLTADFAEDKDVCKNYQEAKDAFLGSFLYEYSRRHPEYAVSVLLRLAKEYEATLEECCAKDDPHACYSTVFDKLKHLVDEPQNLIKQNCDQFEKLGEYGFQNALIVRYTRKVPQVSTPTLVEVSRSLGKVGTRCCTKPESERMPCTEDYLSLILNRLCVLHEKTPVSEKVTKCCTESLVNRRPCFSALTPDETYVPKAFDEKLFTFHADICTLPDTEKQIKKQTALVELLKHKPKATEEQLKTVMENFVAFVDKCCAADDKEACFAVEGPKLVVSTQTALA
Description: as §1, §2, §3, §4

[7] = target: T5, porcine serum albumin (PSA) (Sus scrofa, UniProt P08835); assay: Fluorescence quenching of porcine serum albumin by mycotoxins; format: binding; settings: for logKSV ± SEM (Stern-Volmer quenching constant): PSA 2 μmol/L, PBS pH 7.4, room temperature, λex = 295 nm, λem = 340 nm
T5 construct: purchased Sigma-Aldrich
T5 sequence (P08835 25-607): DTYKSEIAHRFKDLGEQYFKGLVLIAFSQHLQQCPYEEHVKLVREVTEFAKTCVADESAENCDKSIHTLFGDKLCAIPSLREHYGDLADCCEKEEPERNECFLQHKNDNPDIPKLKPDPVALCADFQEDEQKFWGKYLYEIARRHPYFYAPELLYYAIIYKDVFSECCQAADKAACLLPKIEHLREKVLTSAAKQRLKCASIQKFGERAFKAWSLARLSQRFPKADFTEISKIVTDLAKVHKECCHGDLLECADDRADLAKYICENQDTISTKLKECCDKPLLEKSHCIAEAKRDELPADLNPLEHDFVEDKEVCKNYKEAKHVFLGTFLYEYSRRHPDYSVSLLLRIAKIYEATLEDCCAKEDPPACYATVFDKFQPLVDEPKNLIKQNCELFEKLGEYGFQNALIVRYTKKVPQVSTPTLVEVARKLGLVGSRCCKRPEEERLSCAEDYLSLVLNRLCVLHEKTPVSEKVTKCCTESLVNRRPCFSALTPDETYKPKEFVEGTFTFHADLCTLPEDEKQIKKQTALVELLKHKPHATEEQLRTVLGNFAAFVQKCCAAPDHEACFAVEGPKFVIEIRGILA
Description: as §1, §2, §3, §4

rat serum albumin (RSA) [8] = target: T6, rat serum albumin (RSA) (Rattus norvegicus, UniProt P02770); assay: Fluorescence quenching of rat serum albumin by mycotoxins; format: binding; settings: for logKSV ± SEM (Stern-Volmer quenching constant): RSA 2 μmol/L, PBS pH 7.4, room temperature, λex = 295 nm, λem = 340 nm
T6 construct: purchased Sigma-Aldrich
T6 sequence (P02770 25-608): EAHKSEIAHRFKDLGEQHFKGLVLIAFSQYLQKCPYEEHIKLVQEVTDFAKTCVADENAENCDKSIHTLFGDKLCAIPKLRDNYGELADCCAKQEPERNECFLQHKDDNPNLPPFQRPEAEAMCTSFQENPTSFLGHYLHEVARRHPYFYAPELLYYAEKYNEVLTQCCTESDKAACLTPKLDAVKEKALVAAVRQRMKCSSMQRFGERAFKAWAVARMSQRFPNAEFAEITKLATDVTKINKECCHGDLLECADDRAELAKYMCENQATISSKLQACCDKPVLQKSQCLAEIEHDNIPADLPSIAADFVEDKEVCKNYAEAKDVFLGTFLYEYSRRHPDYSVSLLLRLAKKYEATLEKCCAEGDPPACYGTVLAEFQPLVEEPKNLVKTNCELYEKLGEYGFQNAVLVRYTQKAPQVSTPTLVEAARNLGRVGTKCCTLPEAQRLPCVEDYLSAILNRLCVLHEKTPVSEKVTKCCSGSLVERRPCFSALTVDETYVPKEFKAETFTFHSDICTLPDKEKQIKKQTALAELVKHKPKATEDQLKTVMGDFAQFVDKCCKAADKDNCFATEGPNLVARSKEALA
Description: as §1, §2, §3, §4

estrogen receptors = settings: cited from earlier work; for xenoestrogenic effects compared with ZEN: ref EFSA 2017, Fleck et al. 2017, Frizzell et al. 2011, Filannino et al. 2011
[9] = target: T3, human serum albumin (HSA); design: method as in Faisal et al. (2018); settings: ref Faisal et al. (2018); cited from earlier work
[10] = target: T4, bovine serum albumin (BSA); design: method as in Faisal et al. (2018); settings: ref Faisal et al. (2018); cited from earlier work
[11] = target: T5, porcine serum albumin (PSA); design: method as in Faisal et al. (2018); settings: ref Faisal et al. (2018); cited from earlier work
rat serum albumin (RSA) [12] = target: T6, rat serum albumin (RSA); design: method as in Faisal et al. (2018); settings: ref Faisal et al. (2018); cited from earlier work
warfarin-HSA complex [13] = target: T2, warfarin-HSA complex; design: method as in Poór et al. 2017; Faisal et al. 2018; settings: allosteric interaction with Sudlow's site I ligand; ref Poór et al. 2017; Faisal et al. 2018; cited from earlier work
[14] = design: method as in EFSA 2014; settings: ZEN equivalents for ZEN and its modified forms jointly; ref EFSA 2014; cited from earlier work
[15] = design: method as in Rai et al. 2019; settings: ref Rai et al. 2019; cited from earlier work
[16] = from binding constants of Table 2

Compound	retention time (tR) from HSA-HPAC affinity column (HSA)	effect on fluorescence emission signal of warfarin at 379 nm (warfarin-HSA interaction) (warfarin-HSA complex [1])	logKSV ± SEM (Stern-Volmer quenching constant) [5] [L/mol]	Kd [5]	Kd [6] [µM]	logKSV ± SEM (Stern-Volmer quenching constant) [6] [L/mol]	Kd [7] [µM]	logKSV ± SEM (Stern-Volmer quenching constant) [7] [L/mol]	Kd (rat serum albumin (RSA) [8]) [µM]	logKSV ± SEM (Stern-Volmer quenching constant) (rat serum albumin (RSA) [8]) [L/mol]	effect on binding affinity of warfarin towards HSA (warfarin-HSA complex [13])	further results
C[C@H]1CCCC(=O)CCC/C=C/c2cc(O[C@@H]3O[C@H](CO)[C@@H](O)[C@H](O)[C@H]3O)cc(O)c2C(=O)O1 [Z14G, Zearalenone-14-O-β-D-glucoside]	1.7 min and 1.650 min	did not affect the fluorescence at 379 nm	–	–	–	–	–	–	–	–	–	effect on the emission signals of albumins (quenching) [2]: did not affect the emission signals of albumins; plasma concentrations after oral administration [3]: low plasma concentrations; absorption in CaCo-2 cell model (CaCo-2 cells): considerably lower compared with ZEN; fraction of the orally administered compound absorbed ([4]; oral, ref Catteuw et al. 2019): approximately 61%; intestinal hydrolysis to ZEN after oral administration [4]: complete intestinal hydrolysis to ZEN
C[C@H]1CCCC(=O)CCC/C=C/c2cc(OS(=O)(=O)O)cc(O)c2C(=O)O1 [Z14S, Zearalenone-14-sulfate ammonium salt]	23.3 min and 23.293 min	did not affect the fluorescence at 379 nm	4.64 ± 0.03	20 µM and 19.5 µM	3.72	5.32 ± 0.02	7.59	5.04 ± 0.02	1.17	5.70 ± 0.02	–	difference in binding affinity, RSA and HSA complex (rat serum albumin (RSA) [8]; [16]): 16 fold; lower estrogenicity vs. ZEN (estrogen receptors; in vitro, ref Drzymala et al. 2015): 100 fold; intestinal hydrolysis to ZEN after oral administration [4]: complete intestinal hydrolysis to ZEN
C[C@H]1CCCC(=O)CCCCCc2cc(O)cc(O)c2C(=O)O1 [ZAN, zearalanone]	8.0 min and 8.017 min	considerably increased the emission signal of warfarin	4.52 ± 0.04	26.3 µM	–	4.41 ± 0.04	107	3.97 ± 0.06	7.59	5.00 ± 0.03	–	Kd ([6]; BSA, quenching data, Hyperquad2006 fitting, 1:1 stoichiometry, PBS pH 7.4, read-out: logK ± SEM (binding constant of mycotoxin-albumin complex) (converted)): 30.9 µM; difference in binding affinity, RSA vs. PSA complex (rat serum albumin (RSA) [8]; [16]): 14 fold
C[C@H]1CCCC(=O)CCC/C=C/c2cc(O)cc(O)c2C(=O)O1 [ZEN, Zearalenone]	12.3 min and 12.267 min	–	–	–	–	–	–	–	–	–	increase	logK ± SEM (binding constant of mycotoxin-albumin complex) [9]: 5.1 L/mol and 5.09 ± 0.01^a L/mol; logKSV ± SEM (Stern-Volmer quenching constant) [9]: 5.09 ± 0.01^a L/mol; logK ± SEM (binding constant of mycotoxin-albumin complex) [10]: 4.78 ± 0.01^a L/mol; logKSV ± SEM (Stern-Volmer quenching constant) [10]: 4.81 ± 0.01^a L/mol; logK ± SEM (binding constant of mycotoxin-albumin complex) [11]: 4.57 ± 0.01^a L/mol; logKSV ± SEM (Stern-Volmer quenching constant) [11]: 4.56 ± 0.02^a L/mol; logK ± SEM (binding constant of mycotoxin-albumin complex) (rat serum albumin (RSA) [12]): 5.42 ± 0.00^a L/mol; logKSV ± SEM (Stern-Volmer quenching constant) (rat serum albumin (RSA) [12]): 5.50 ± 0.01^a L/mol; human tolerable daily intake (TDI) [14]: 0.25 μg/kg body weight per day; IARC carcinogen classification [15]: group 3 carcinogen
C[C@H]1CCC[C@H](O)CCCCCc2cc(O)cc(O)c2C(=O)O1 [α-ZAL, α-zearalanol]	5.3 min and 5.313 min	considerably increased the emission signal of warfarin	4.50 ± 0.02	28.2 µM	45.7	4.20 ± 0.05	41.7	4.30 ± 0.05	4.9	5.21 ± 0.00	–	difference in binding affinity, RSA vs. BSA complex (rat serum albumin (RSA) [8]; [16]): 9 fold; xenoestrogenic effects compared with ZEN (estrogen receptors): considerably higher xenoestrogenic effects than ZEN
C[C@H]1CCC[C@H](O)CCC/C=C/c2cc(O)cc(O)c2C(=O)O1 [α-ZEL, α-zearalenol, reference compound]	–	–	–	–	–	–	–	–	–	–	increase	xenoestrogenic effects compared with ZEN (estrogen receptors): considerably higher xenoestrogenic effects than ZEN
C[C@H]1CCC[C@@H](O)CCCCCc2cc(O)cc(O)c2C(=O)O1 [β-ZAL, β-zearalanol]	3.1 min and 3.053 min	did not affect the fluorescence at 379 nm	4.34 ± 0.04	42.7 µM	75.9	3.88 ± 0.06	70.8	4.13 ± 0.09	2.45	5.43 ± 0.01	–	difference in binding affinity, RSA vs. BSA complex (rat serum albumin (RSA) [8]; [16]): 30 fold
C[C@H]1CCC[C@@H](O)CCC/C=C/c2cc(O)cc(O)c2C(=O)O1 [β-ZEL, β-zearalenol]	–	–	–	–	–	–	–	–	–	–	decrease	–
